According to the NIST ThermoML archive (doi:10.1021/acs.jced.9b00507):
± gives the expanded uncertainty stated by the source.

Assay: xn = mol fraction of the nth substance listed
Conditions: 100 kPa, Liquid; for viscosity: Concentric cylinders viscometry; for mass density: Vibrating tube method

CCCCCCn1cc[n+](C)c1.O=[N+]([O-])[O-] [1-hexyl-3-methylimidazolium nitrate] + CCCCCCCCO
Conditions	mass density [kg/m3]	viscosity [mPa·s]
293.15 K, x1 = 0.0806	856.1 ± 1.3	15.49 ± 1.3
293.15 K, x1 = 0.1591	885.1 ± 1.2	23.39 ± 1.9
293.15 K, x1 = 0.2392	913.2 ± 1.2	34.36 ± 2.8
293.15 K, x1 = 0.3493	949.6 ± 1.2	55.85 ± 4.5
293.15 K, x1 = 0.4396	977.6 ± 1.2	83.56 ± 6.8
293.15 K, x1 = 0.5621	1013.2 ± 1.2	149.62 ± 12
293.15 K, x1 = 0.649	1036.9 ± 1.2	222.84 ± 18
293.15 K, x1 = 0.7407	1060.6 ± 1.3	331.13 ± 28
293.15 K, x1 = 0.8495	1087 ± 1.3	504.66 ± 43
293.15 K, x1 = 0.9397	1107.4 ± 1.4	677.63 ± 59
293.15 K, x1 = 1	1120.3 ± 1.4	804.17 ± 70
298.15 K, x1 = 0.0806	852.6 ± 1.2	11.3 ± 0.91
298.15 K, x1 = 0.1591	881.4 ± 1.2	15.96 ± 1.3
298.15 K, x1 = 0.2392	909.5 ± 1.2	22.23 ± 1.8
298.15 K, x1 = 0.3493	946 ± 1.2	34.83 ± 2.8
298.15 K, x1 = 0.4396	974 ± 1.2	51.05 ± 4.1
298.15 K, x1 = 0.5621	1009.7 ± 1.2	89.33 ± 7.2
298.15 K, x1 = 0.649	1033.6 ± 1.2	133.05 ± 11
298.15 K, x1 = 0.7407	1057.3 ± 1.3	205.44 ± 17
298.15 K, x1 = 0.8495	1083.8 ± 1.3	321.84 ± 27
298.15 K, x1 = 0.9397	1104.4 ± 1.4	446.63 ± 38
298.15 K, x1 = 1	1117.5 ± 1.4	545.25 ± 47
303.15 K, x1 = 0.0806	848.9 ± 1.2	8.53 ± 0.69
303.15 K, x1 = 0.1591	877.7 ± 1.2	11.46 ± 0.92
303.15 K, x1 = 0.2392	905.8 ± 1.2	15.38 ± 1.2
303.15 K, x1 = 0.3493	942.3 ± 1.2	23.23 ± 1.9
303.15 K, x1 = 0.4396	970.3 ± 1.2	33.11 ± 2.7
303.15 K, x1 = 0.5621	1006.1 ± 1.2	54.2 ± 4.4
303.15 K, x1 = 0.649	1030 ± 1.2	78.89 ± 6.4
303.15 K, x1 = 0.7407	1053.8 ± 1.3	122.74 ± 10
303.15 K, x1 = 0.8495	1080.4 ± 1.3	203.15 ± 17
303.15 K, x1 = 0.9397	1101.1 ± 1.4	292.37 ± 25
303.15 K, x1 = 1	1114.3 ± 1.4	369.14 ± 31
308.15 K, x1 = 0.0806	845.3 ± 1.2	6.7 ± 0.54
308.15 K, x1 = 0.1591	874.1 ± 1.2	8.47 ± 0.68
308.15 K, x1 = 0.2392	902.1 ± 1.2	10.57 ± 0.85
308.15 K, x1 = 0.3493	938.6 ± 1.2	14.52 ± 1.2
308.15 K, x1 = 0.4396	966.7 ± 1.2	19.63 ± 1.6
308.15 K, x1 = 0.5621	1002.5 ± 1.2	32.58 ± 2.6
308.15 K, x1 = 0.649	1026.4 ± 1.2	47.1 ± 3.8
308.15 K, x1 = 0.7407	1050.3 ± 1.3	73.28 ± 6
308.15 K, x1 = 0.8495	1077 ± 1.3	127.64 ± 10
308.15 K, x1 = 0.9397	1097.8 ± 1.4	197.38 ± 16
308.15 K, x1 = 1	1111.1 ± 1.4	257.59 ± 21
313.15 K, x1 = 0.0806	841.7 ± 1.2	5.41 ± 0.43
313.15 K, x1 = 0.1591	870.4 ± 1.2	6.35 ± 0.51
313.15 K, x1 = 0.2392	898.4 ± 1.2	7.59 ± 0.61
313.15 K, x1 = 0.3493	934.8 ± 1.2	10 ± 0.8
313.15 K, x1 = 0.4396	963 ± 1.2	12.88 ± 1
313.15 K, x1 = 0.5621	998.8 ± 1.2	19.77 ± 1.6
313.15 K, x1 = 0.649	1022.7 ± 1.2	28.31 ± 2.3
313.15 K, x1 = 0.7407	1046.7 ± 1.2	44.73 ± 3.6
313.15 K, x1 = 0.8495	1073.5 ± 1.3	81.32 ± 6.6
313.15 K, x1 = 0.9397	1094.4 ± 1.4	135.25 ± 11
313.15 K, x1 = 1	1107.8 ± 1.4	185.67 ± 15
318.15 K, x1 = 0.0806	838 ± 1.2	4.25 ± 0.34
318.15 K, x1 = 0.1591	866.7 ± 1.2	4.67 ± 0.37
318.15 K, x1 = 0.2392	894.7 ± 1.2	5.41 ± 0.43
318.15 K, x1 = 0.3493	931.2 ± 1.2	7.05 ± 0.57
318.15 K, x1 = 0.4396	959.3 ± 1.2	8.91 ± 0.72
318.15 K, x1 = 0.5621	995.2 ± 1.2	13.87 ± 1.1
318.15 K, x1 = 0.649	1019.2 ± 1.2	19.95 ± 1.6
318.15 K, x1 = 0.7407	1043.2 ± 1.2	31.92 ± 2.6
318.15 K, x1 = 0.8495	1070.1 ± 1.3	56.98 ± 4.6
318.15 K, x1 = 0.9397	1091.1 ± 1.4	99.97 ± 8.2
318.15 K, x1 = 1	1104.7 ± 1.4	140.18 ± 11
323.15 K, x1 = 0.0806	834.4 ± 1.2	3.56 ± 0.29
323.15 K, x1 = 0.1591	863 ± 1.2	3.84 ± 0.31
323.15 K, x1 = 0.2392	891 ± 1.2	4.28 ± 0.34
323.15 K, x1 = 0.3493	927.5 ± 1.2	5.25 ± 0.42
323.15 K, x1 = 0.4396	955.7 ± 1.2	6.46 ± 0.52
323.15 K, x1 = 0.5621	991.6 ± 1.2	9.46 ± 0.76
323.15 K, x1 = 0.649	1015.7 ± 1.2	13.58 ± 1.1
323.15 K, x1 = 0.7407	1039.8 ± 1.2	22.08 ± 1.8
323.15 K, x1 = 0.8495	1066.8 ± 1.3	42.16 ± 3.4
323.15 K, x1 = 0.9397	1087.9 ± 1.4	76.46 ± 6.2
323.15 K, x1 = 1	1101.6 ± 1.4	110.94 ± 9
